These results are taken from US11091450B2, “Crystal of a caspase inhibitor” (Chia Tai Tianqing Pharmaceutical Group Co., Ltd., priority 2018, dated 2021).

The target of one data set is T1, Caspase-1 (Homo sapiens, UniProt P29466).
T1 construct: purchased BioVision K151-100
T1 sequence (P29466 120-297 limits assumed): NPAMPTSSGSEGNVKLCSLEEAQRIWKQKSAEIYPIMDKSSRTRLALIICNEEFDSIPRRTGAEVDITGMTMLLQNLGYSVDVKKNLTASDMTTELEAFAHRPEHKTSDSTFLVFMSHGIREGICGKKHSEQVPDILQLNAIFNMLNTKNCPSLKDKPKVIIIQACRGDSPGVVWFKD
T1 sequence (P29466 317-404 limits assumed): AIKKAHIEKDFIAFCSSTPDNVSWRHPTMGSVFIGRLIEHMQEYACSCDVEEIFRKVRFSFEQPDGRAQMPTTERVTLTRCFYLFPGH
Nature of the data set: Caspase-1 Inhibitor Screening Kit (BioVision), fluorogenic substrate. The format is biochemical. The note with it: 30 min preincubation at 37° C., substrate 50 μM; read-out: Caspase-1 enzymatic activity (IC50). As for the experimental part: (§1) Caspase Inhibitor Screening Kit for BioVision was used in this experiment to test the inhibitory activity of the test compound on Caspase.
(§2) • 1) Kit: • Caspase-1 Inhibitor Screening Kit (BioVision #K151-100) • Caspase-3 Inhibitor Screening Kit (BioVision #K153-100) • Caspase-8 Inhibitor Screening Kit (BioVision #K158-100) • Wherein, each caspase enzymatic experiment uses the reagents in corresponding kit thereof. Each enzyme was dissolved in 550 μl of the corresponding 2× reaction buffer, sub-packed and stored at −80° C., respectively. • 2) Black 384-well plate (PerkinElmer #6007279) • 3) Instrument: Multi-function microplate reader Molecular Devices (Model: SpectraMax M2e) Experimental Method: • 1) The compound of formula I-A was diluted to a 200* test concentration with DMSO via the multiple dilution, then to a 2* test concentration with ddH2O, and added to a 384-well experimental plate at 12.5 μl per well. […] After the substrate was added, the 384-well experimental plate was incubated at 37° C. for 30 minutes. • 4) The fluorescence intensity (excitation light wavelength was 400 nm, emission light wavelength was 505 nm) was measured by using a multi-function microplate reader. Fluorescence intensity was used to calculate the inhibitory effect of the compounds on Caspase. […]

A further data set concerns the target T2, Caspase-3 (Homo sapiens, UniProt P42574).
T2 construct: purchased BioVision K153-100
T2 sequence (P42574 29-175 limits assumed): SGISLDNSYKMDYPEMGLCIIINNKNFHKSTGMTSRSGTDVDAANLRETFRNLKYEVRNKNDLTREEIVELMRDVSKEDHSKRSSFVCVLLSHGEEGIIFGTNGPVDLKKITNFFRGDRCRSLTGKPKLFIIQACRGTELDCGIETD
T2 sequence (P42574 176-277 limits assumed): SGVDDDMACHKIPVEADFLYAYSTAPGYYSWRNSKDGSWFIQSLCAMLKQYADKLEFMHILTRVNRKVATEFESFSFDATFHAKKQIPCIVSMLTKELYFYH
Nature of the data set: Caspase-3 Inhibitor Screening Kit (BioVision), fluorogenic substrate. The format is biochemical. The conditions noted are these: 30 min preincubation at 37° C., substrate 50 μM; read-out: Caspase-3 enzymatic activity (IC50). As for the experimental part:
as §1, §2

A further data set addresses T3, Caspase-8 (Homo sapiens, UniProt Q14790).
T3 construct: purchased BioVision K158-100
In words: Caspase-8 Inhibitor Screening Kit (BioVision), fluorogenic substrate. The format is biochemical. The conditions noted are these: 30 min preincubation at 37° C., substrate 50 μM; read-out: Caspase-8 enzymatic activity (IC50). On the procedure: as §1, §2

Data set [1] in a line: Solubility test of crystal IV in different pH medium solutions. The format is physicochemical. The conditions noted are these: thermodynamic from solid, 37° C. On the procedure:
2 ml of pH medium solutions were transferred into 4 ml glass bottle respectively, and then 8 mg of crystal IV of the compound of formula I-A was added thereto. It was stirred and heated on a magnetic stirrer, and the temperature was kept at 37° C. After 4 hours and 24 hours, 1 mL of sample was taken and centrifuged rapidly, respectively. The pH value of the supernatant was determined, and the supernatant was diluted with diluent. The concentration was determined by HPLC.

Data set [2] can be described thus: Solid stability test of crystal IV (temperature, humidity, light; HPLC impurities). It is filed as physicochemical. On the procedure: 8 mg of crystal IV of the compound of formula I-A was taken, weighed accurately, placed in the sample vial and spread into a thin layer. The samples at day 0 were sealed with the bottle cap and further sealed with the sealing film, followed by storing in the refrigerator at −20° C. The stability of the samples was tested under 60° C., 92.5% RH, 25° C./60% RH, 40° C./75% RH, 60° C./75% RH and light conditions, respectively.
Analysis method: Agilent 1260 High Performance Liquid Chromatography equipped with DAD detector or Waters 2695 High Performance Liquid Chromatography equipped with PDA detector was used; chromatographic column: Waters Xselect CSH C18 (4.6 mm×150 mm, 3.5 μm), column temperature: 40° C., flow rate: 1.0 ml/min, detection wavelength: 215 nm, injection volume: 10 μL, sample concentration: 0.5 mg/mL, diluent: methanol, and the gradient of mobile phases in Table 9 was used for analysis.

Where [3] appears, read: aqueous buffer, pH = 4.5 Buffer, supernatant pH 4.67.
Setting [4] is: aqueous buffer, pH = 5.5 Buffer, supernatant pH 5.55.
Where [5] appears, read: aqueous buffer, pH = 6.0 Buffer, supernatant pH 6.04.

≈ marks a conversion by molar mass, not a printed value.

T3 sequence (Q14790 217-374 limits assumed): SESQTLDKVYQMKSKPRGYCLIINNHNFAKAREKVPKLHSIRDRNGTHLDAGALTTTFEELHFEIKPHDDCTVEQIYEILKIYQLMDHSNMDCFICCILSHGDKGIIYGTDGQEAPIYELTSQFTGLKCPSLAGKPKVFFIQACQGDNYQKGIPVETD
T3 sequence (Q14790 385-479 limits assumed): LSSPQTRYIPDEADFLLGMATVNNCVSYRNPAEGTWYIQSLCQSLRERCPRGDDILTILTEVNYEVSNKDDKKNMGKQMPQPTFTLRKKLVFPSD

For `C[C@H](NC(=O)c1cc(-c2ccccc2Cl)on1)C(=O)N[C@@H](CC(=O)O)C(=O)COc1c(F)c(F)cc(F)c1F` [Compound of formula I-A, (S)-3-((S)-2-(5-(2-chlorophenyl)isoxazol-3-carboxamido)propionamido)-4-oxo-5-(2,3,5,6-tetrafluorophenoxy)pentanoic acid], the results for the IC50 on Caspase-1, on Caspase-3 and on Caspase-8 were 4.6 nM, 13 nM and 10.3 nM, respectively.
`C[C@H](NC(=O)c1cc(-c2ccccc2Cl)on1)C(=O)N[C@@H](CC(=O)O)C(=O)COc1c(F)c(F)cc(F)c1F` [crystal IV, (S)-3-((S)-2-(5-(2-chlorophenyl)isoxazol-3-carboxamido)propionamido)-4-oxo-5-(2,3,5,6-tetrafluorophenoxy)pentanoic acid]: the solubility (in general, how much of the substance goes into solution per volume) at 4 h in data set [1] (0.01 N HCl buffer, simulated gastric fluid, 0.01N of HCl Buffer, supernatant pH 2.01) was 5 µg/mL (≈ 8.74 µM); in data set [1] (0.1 N HCl buffer, simulated gastric fluid, 0.1N of HCl Buffer, supernatant pH 1.07), 5 µg/mL (≈ 8.74 µM); in data set [1] (aqueous buffer, pH = 3.8 Buffer, supernatant pH 3.97), 7 µg/mL (≈ 12.2 µM); in data set [1] (setting [3]) it was 16 µg/mL (≈ 28 µM); in data set [1] (setting [4]), 268 µg/mL (≈ 469 µM); in data set [1] (setting [5]), 372 µg/mL (≈ 651 µM). The solubility at 4 h in data set [1] (aqueous buffer, pH = 6.8 Buffer, supernatant pH 6.71) turned out to be 775 µg/mL (≈ 1360 µM); in data set [1] (aqueous buffer, pH = 7.4 Buffer, supernatant pH 7.28) it was 1700 µg/mL (≈ 2970 µM); in data set [1] (Water, supernatant pH 7.83) it was 339 µg/mL (≈ 593 µM). The solubility at 24 h was 6 µg/mL (≈ 10.5 µM) in data set [1] (0.01 N HCl buffer, simulated gastric fluid, 0.01N of HCl Buffer, supernatant pH 2.07); 6 µg/mL (≈ 10.5 µM) in data set [1] (0.1 N HCl buffer, simulated gastric fluid, 0.1N of HCl Buffer, supernatant pH 1.11); 8 µg/mL (≈ 14 µM) in data set [1] (aqueous buffer, pH = 3.8 Buffer, supernatant pH 3.99); 16 µg/mL (≈ 28 µM) in data set [1] (setting [3]); 254 µg/mL (≈ 444 µM) in data set [1] (setting [4]); 340 µg/mL (≈ 595 µM) in data set [1] (setting [5]). Moreover, the solubility at 24 h in data set [1] (aqueous buffer, pH = 7.4 Buffer, supernatant pH 7.24) came to 1620 µg/mL (≈ 2830 µM); in data set [1] (pH 6.7, aqueous buffer, pH = 6.8 Buffer, supernatant pH 6.70), 702 µg/mL (≈ 1230 µM); in data set [1] (Water, supernatant pH 7.34), 266 µg/mL (≈ 465 µM). The Appearance entry is “White solid powder” in data set [2] (25° C./60% RH, 10 days); “White solid powder” in data set [2] (40° C./75% RH, 10 days); “White solid powder” in data set [2] (60° C./75% RH, 10 days). Also, the “Total Impurities (%)” value in data set [2] (25° C./60% RH, 10 days) was found to be 0.20%; in data set [2] (40° C./75% RH, 10 days) it was 0.19%; in data set [2] (60° C./75% RH, 10 days), 0.48%. In addition, the Property result in data set [2] (25° C./92.5% Relative Humidity (Exposure)), in data set [2] (60° C. (Exposure)) and in data set [2] (Light) was “White solid” each time. The Crystal entry in data set [2] (crystal form after 25° C./60% RH, 10 days) is “Crystal IV”; in data set [2] (crystal form after 25° C./92.5% Relative Humidity (Exposure)), “Crystal IV”; in data set [2] (crystal form after 40° C./75% RH, 10 days) it was “Crystal IV”; in data set [2] (crystal form after 60° C. (Exposure)) it was “Crystal IV”; in data set [2] (crystal form after 60° C./75% RH, 10 days), “Crystal IV”; in data set [2] (crystal form after Light), “Crystal IV”. Moreover, the total impurities produced in data set [2] (high temperature and high humidity conditions (summary of Table 10)) is no more than 0.5%. Besides, in data set [2] (summary of Table 10), the “stability under high temperature and high humidity conditions” value was “stable”. In addition, the hygroscopicity entry in data set [2] (summary of Table 11) is given as “low hygroscopicity”. Further, in data set [2] (summary of Table 11), the “stability under high temperature and light conditions” value is on record as “good stability”.
